Data as given in the Kinase Knowledgebase extract (Sharma et al. 2016).

What follows are molecules tested against EGFR (human) (UniProt P00533). Details: A431.
Sequence of EGFR (human) (P00533 whole entry, looked up): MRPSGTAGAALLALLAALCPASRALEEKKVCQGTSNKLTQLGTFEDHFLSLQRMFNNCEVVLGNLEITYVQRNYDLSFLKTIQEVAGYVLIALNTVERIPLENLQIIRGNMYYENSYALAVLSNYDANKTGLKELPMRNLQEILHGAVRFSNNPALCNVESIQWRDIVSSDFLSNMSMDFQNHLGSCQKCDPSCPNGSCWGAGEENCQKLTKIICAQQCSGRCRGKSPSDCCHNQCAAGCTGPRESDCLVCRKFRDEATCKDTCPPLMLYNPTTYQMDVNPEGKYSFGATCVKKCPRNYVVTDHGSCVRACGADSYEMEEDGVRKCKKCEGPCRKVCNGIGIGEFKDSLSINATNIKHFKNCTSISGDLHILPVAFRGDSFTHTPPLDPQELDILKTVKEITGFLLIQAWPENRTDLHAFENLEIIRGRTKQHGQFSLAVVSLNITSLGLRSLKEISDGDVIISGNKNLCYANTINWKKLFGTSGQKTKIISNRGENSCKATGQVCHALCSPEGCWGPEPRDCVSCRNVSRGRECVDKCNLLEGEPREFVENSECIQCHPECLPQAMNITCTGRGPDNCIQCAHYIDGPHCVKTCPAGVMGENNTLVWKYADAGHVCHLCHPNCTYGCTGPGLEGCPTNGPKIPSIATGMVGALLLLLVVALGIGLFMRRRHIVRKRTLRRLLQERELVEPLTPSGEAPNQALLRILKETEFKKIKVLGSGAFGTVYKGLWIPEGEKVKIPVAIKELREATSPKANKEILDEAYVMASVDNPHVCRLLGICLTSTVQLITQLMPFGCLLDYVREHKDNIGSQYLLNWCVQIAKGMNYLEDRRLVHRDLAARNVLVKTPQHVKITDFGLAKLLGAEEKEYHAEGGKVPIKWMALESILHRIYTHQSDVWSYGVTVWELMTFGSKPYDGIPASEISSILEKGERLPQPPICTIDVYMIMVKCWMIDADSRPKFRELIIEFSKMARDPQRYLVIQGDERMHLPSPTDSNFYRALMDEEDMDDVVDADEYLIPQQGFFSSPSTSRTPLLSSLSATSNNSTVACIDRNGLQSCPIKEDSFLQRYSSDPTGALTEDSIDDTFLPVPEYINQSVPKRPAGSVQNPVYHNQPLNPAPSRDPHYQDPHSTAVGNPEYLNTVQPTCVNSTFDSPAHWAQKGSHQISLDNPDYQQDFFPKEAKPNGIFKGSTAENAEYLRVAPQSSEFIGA

IC50, 108 µM:
Oc1cccc(C=Nc2ccccc2O)c1

IC50, 92 µM:
Oc1ccc(N=Cc2ccccc2O)cc1

IC50, 33 µM:
Oc1ccc(N=Cc2cccc(O)c2)cc1
Oc1ccc(CNc2ccc(O)cc2)cc1

IC50, 0.4 µM:
O=C(O)c1cc(N(Cc2ccccc2O)Cc2cc(O)ccc2O)ccc1O

IC50, > 140 µM:
Oc1ccc(NCc2ccccc2O)cc1
Oc1ccc(C=Nc2ccccc2O)cc1
Oc1cccc(CNc2ccccc2O)c1
Oc1ccc(C=Nc2ccc(O)cc2)cc1
Oc1cccc(N=Cc2ccccc2O)c1
Oc1ccc(NCc2cccc(O)c2)cc1
Oc1ccc(CNc2cccc(O)c2)cc1
Oc1cccc(C=Nc2cccc(O)c2)c1
Oc1ccccc1C=Nc1ccccc1O
Oc1ccc(CNc2ccccc2O)cc1
Oc1cccc(CNc2cccc(O)c2)c1
Oc1ccccc1CNc1ccccc1O
Oc1cccc(NCc2ccccc2O)c1
Oc1ccc(C=Nc2cccc(O)c2)cc1
